ChEMBL document CHEMBL1201862, “PubChem BioAssay data set” (2004)
Active and inactive are the calls of the source.

Tests used:
[1] = target: Luciferin 4-monooxygenase (Photinus pyralis, UniProt P08659); test: Counter Screen for Luciferase-based Assay Positives. [Related pubchem assays: 620, 618, 411 ]
HT-1080 = test: cytotoxicity in HT1080 fibrosarcoma cells, cell-based, fluorescence readout (AID 620); format: functional; conditions: Homo sapiens
HEK293 = test: inhibitors of LMP1-driven NF-kB reporter, dose response, cell-based, HEK293, luciferase, cherry-pick (AID 588343); format: functional; conditions: Homo sapiens
Chaperone protein dnaK = Chaperone protein dnaK (Escherichia coli, UniProt C3TRK2); test: DnaK beta-domain binding affinity, SAR follow-up, orthogonal assay for DnaK modulator project, biophysical, isothermal titration calorimetry, full-length DnaK (AID 1495)
Bcl-2-related protein A1 [2] = target: T1, Bcl-2-related protein A1 (Mus musculus, UniProt Q07440); test: Bfl-1 inhibitors blocking BH3 peptide binding, confirmation, biochemical, TR-FRET, mouse Bfl-1 (AID 621);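 also: TR-FRET binding of GST-Bfl-1 to FITC-labelled Bid peptide via terbium antibody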
T1 sequence (Q07440 whole entry): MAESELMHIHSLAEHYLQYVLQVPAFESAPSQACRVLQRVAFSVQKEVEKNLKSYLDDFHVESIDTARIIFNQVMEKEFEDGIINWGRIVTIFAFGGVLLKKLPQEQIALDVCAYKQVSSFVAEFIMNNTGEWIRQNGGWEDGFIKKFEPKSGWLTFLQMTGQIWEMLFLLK

Protein Rev = Protein Rev (Human immunodeficiency virus type 1 group M subtype B (isolate WMJ22)(HIV-1), UniProt P05866); test: HIV-1 Rev-RRE RNA binding disruptors, dose response, biochemical, protein-RNA interaction (AID 842); parameters: species or system Human immunodeficiency virus 1
Chain of Protein Rev (P05866 whole entry): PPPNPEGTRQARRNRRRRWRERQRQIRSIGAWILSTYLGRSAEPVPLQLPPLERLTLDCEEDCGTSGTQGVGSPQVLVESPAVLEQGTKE

[3] = target: T2, Calpain-2 catalytic subunit (Sus scrofa, UniProt P43367); test: pig calpain II inhibitor potency, dose response, biochemical, fluorogenic peptide substrate (AID 1420); format: functional
T2 sequence (P43367 whole entry): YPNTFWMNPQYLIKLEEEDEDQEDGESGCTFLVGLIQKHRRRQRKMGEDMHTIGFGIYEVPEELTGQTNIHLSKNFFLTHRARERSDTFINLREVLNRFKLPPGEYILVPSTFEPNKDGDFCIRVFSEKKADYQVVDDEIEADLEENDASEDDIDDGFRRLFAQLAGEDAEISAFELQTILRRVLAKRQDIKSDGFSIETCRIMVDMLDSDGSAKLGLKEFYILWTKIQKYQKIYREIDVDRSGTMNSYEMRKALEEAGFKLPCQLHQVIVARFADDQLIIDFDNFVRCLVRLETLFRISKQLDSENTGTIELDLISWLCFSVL

Bcl-2-related protein A1 [4] = target: T1, Bcl-2-related protein A1; test: Bfl-1 inhibitors, primary screen, biochemical, fluorescence polarization, FITC-Bid, mouse (AID 432)
Cytochrome P450 3A4 = Cytochrome P450 3A4 (Homo sapiens, UniProt P08684); conditions: Potency;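 also: confirmatory qHTS run detecting inhibitors and substrates of CYP3A4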
Chain of Cytochrome P450 3A4 (P08684 whole entry): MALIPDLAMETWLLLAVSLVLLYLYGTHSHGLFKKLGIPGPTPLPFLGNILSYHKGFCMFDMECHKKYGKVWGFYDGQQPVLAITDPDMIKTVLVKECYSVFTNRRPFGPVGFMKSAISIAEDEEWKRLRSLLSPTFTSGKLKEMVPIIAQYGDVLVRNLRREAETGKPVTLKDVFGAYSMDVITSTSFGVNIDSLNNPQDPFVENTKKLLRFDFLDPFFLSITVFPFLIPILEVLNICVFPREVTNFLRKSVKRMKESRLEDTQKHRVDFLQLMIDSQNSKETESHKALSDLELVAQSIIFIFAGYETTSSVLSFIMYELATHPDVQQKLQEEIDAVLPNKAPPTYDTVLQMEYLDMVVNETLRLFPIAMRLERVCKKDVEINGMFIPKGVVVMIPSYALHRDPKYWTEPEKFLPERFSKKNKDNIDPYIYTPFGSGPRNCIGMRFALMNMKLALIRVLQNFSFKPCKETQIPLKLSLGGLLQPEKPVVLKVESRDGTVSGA

Streptococcus [5] = test: Group A Streptococcus viability loss, dose response, counter-screen for streptokinase expression inhibitor project, luminescence, BacTiterGlo (AID 1915); format: functional, organism-based;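 also: potency for reduction of bacterial viability or growth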
[6] = inhibitors of SNCA 5'UTR-driven reporter translation, confirmation, H4 neuroglioma cells, luminescence (AID 1988); format: functional, cell-based
[7] = test system: Streptococcus sp. 'group A'; test: growth inhibition of control SK(-) GAS strain, dose response, counter-screen for streptokinase expression inhibitor project, luminescence, kanamycin, BacTiterGlo, confirmation (AID 1900); format: functional, organism-based; conditions: read-out: EC50
Streptokinase A = target: T3, Streptokinase A (Streptococcus pyogenes serotype M1, UniProt P10520); test: S. pyogenes streptokinase expression inhibitors, potency, dose response, plasminogen activation absorbance, OD405 (AID 1914); format: functional, Streptococcus pyogenes M1 GAS;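 also: secreted streptokinase activity via plasminogen activation per viability signal from cell pellet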
T3 sequence (P10520 whole entry): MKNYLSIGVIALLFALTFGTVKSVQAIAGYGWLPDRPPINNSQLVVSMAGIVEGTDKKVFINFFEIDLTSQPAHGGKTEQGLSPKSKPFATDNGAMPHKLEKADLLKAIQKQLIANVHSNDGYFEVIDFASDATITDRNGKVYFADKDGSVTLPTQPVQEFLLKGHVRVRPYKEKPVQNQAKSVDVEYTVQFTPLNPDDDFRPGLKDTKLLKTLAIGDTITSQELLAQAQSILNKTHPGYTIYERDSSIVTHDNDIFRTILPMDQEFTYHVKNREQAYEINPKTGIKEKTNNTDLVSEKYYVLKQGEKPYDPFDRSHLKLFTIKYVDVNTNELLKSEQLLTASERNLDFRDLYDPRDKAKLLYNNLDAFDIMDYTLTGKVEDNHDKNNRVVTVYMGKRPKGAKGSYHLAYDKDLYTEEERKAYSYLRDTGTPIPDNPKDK

[8] = Luminescence Cell-Based Dose Response HTS to Identify Inhibitors of 5'UTR Stem-Loop Driven Prion Protein mRNA Translation in H4 Neuroglioblastoma Cells. [Related pubchem assays: 1827 (Project Summary), 1813 (Primary HTS)]; format: functional
Streptococcus [9] = test: Luminescence Microorganism-Based Dose Response Follow up to Identify Compounds Cytotoxic to Streptococcus. [Related pubchem assays: 1677 (Project Summary), 1915, 1914, 1902 (Retest at Dose), 1900 (Counter Screen), 1662 (Primary HTS)]; format: functional, organism-based
[10] = inhibitors of firefly luciferase expression or activity, dose response, H4 neuroglioma cells, luminescence (AID 1990); format: functional, cell-based
Ion channel NompC = Ion channel NompC (Danio rerio, UniProt Q7T1G6); test: Fluorescence counterscreen assay for TRPML3 agonists: dose response cell-based high-throughput screening assay to identify agonists of the transient receptor potential channel N1 (TRPN1). [Related pubchem assays: 1526, 1424, 1448 ]; format: functional
Chain of Ion channel NompC (Q7T1G6 whole entry): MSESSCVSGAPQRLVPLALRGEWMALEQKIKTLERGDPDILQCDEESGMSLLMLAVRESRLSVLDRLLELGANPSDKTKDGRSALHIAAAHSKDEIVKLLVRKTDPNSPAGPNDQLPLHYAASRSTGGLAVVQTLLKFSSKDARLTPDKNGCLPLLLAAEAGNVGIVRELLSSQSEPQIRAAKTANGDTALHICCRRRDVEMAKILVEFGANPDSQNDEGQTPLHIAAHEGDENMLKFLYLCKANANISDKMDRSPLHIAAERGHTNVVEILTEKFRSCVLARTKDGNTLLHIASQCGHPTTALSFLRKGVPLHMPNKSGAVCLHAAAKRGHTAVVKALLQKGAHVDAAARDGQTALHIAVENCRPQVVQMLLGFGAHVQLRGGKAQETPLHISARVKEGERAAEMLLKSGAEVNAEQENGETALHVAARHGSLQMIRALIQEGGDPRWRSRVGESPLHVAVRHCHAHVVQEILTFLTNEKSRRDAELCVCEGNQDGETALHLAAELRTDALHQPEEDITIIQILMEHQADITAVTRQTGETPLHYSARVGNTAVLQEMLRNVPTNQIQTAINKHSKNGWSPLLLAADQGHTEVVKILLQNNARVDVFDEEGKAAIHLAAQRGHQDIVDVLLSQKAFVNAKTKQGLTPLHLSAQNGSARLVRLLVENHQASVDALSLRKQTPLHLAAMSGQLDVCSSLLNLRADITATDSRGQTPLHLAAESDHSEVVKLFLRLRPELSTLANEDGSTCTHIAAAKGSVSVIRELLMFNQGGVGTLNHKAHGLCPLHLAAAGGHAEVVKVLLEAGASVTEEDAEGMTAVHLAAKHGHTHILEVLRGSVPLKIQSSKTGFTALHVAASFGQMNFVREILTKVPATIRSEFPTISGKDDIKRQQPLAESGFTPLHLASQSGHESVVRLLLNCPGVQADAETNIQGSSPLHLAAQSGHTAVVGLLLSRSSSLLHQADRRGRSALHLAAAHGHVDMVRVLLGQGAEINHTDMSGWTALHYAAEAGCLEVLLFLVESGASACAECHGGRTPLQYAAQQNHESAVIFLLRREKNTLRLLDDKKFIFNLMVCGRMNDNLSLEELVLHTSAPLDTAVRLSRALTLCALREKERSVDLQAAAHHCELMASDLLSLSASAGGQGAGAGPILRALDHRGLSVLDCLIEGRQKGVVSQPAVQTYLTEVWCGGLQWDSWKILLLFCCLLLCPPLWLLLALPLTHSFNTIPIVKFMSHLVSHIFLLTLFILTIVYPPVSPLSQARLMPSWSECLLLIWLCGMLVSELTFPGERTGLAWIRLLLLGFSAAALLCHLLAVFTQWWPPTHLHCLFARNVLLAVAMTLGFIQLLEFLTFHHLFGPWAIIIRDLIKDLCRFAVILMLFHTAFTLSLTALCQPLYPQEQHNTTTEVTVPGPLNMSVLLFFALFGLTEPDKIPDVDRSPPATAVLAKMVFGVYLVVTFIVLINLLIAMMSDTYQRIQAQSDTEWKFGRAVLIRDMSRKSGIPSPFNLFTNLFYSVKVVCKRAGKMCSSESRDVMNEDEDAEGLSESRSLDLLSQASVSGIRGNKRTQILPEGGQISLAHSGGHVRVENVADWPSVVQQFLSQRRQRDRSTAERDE

Mucolipin-3 = Mucolipin-3 (Homo sapiens, UniProt Q8TDD5); test: Dose response cell-based high-throughput screening assay for agonists of the transient receptor potential channel ML3 (TRPML3). [Related pubchem assays: 1526, 1424, 1448 ]; format: functional
Chain of Mucolipin-3 (Q8TDD5 whole entry): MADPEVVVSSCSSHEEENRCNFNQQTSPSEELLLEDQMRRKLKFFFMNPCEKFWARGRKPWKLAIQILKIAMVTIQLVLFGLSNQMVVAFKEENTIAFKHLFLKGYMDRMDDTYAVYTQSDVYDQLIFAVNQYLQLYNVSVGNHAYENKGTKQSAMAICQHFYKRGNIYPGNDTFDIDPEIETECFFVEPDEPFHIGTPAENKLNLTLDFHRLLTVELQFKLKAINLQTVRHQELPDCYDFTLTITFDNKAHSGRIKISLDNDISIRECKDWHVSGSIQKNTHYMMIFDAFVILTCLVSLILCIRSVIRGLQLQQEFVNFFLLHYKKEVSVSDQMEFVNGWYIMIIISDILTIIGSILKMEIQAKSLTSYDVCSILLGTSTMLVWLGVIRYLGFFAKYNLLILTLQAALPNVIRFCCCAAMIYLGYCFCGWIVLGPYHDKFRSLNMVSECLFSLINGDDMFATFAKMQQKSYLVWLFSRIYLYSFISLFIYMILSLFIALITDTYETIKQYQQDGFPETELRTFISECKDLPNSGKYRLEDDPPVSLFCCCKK

Cytochrome P450 2C9 [11] = target: T4, Cytochrome P450 2C9 (Homo sapiens, UniProt P11712); conditions: Potency
T4 sequence (P11712 whole entry): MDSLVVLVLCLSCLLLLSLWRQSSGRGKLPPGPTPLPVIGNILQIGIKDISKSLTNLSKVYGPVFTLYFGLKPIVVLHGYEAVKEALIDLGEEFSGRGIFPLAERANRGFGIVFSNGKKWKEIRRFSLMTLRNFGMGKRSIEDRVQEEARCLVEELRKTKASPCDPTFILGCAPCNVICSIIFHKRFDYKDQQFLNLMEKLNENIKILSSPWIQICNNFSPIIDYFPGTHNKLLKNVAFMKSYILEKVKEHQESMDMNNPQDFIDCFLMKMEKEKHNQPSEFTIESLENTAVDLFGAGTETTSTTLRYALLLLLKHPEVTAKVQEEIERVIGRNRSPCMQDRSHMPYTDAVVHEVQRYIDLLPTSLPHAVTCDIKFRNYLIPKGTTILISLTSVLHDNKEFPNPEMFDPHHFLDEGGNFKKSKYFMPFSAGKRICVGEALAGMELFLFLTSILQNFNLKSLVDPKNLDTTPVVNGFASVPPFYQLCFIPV

Cytochrome P450 1A2 = target: T5, Cytochrome P450 1A2 (Homo sapiens, UniProt P05177);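 also: PubChem cytochrome P450 panel assay, CYP1A2 panel member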
T5 sequence (P05177 whole entry): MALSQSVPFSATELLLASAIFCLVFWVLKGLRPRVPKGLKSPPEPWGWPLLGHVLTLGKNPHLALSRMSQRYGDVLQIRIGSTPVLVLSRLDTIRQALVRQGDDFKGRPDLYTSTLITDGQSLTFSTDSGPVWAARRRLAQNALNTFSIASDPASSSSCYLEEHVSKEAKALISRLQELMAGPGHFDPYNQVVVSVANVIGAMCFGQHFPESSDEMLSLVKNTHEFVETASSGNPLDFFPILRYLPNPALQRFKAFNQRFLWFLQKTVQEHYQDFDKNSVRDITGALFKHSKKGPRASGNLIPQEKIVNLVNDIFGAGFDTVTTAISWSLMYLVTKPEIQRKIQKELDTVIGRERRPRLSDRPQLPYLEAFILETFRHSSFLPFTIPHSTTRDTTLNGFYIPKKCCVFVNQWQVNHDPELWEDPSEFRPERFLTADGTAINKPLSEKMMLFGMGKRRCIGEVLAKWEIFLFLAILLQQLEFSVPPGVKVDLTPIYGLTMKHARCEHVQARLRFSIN

Cytochrome P450 2C9 [12] = target: T4, Cytochrome P450 2C9
Cytochrome P450 2D6 [13] = target: T6, Cytochrome P450 2D6 (Homo sapiens, UniProt P10635); test: qHTS Assay for Inhibitors and Substrates of Cytochrome P450 2D6. [Related pubchem assays: 410 ]; format: ADME; conditions: read-out: Potency
T6 sequence (P10635 whole entry): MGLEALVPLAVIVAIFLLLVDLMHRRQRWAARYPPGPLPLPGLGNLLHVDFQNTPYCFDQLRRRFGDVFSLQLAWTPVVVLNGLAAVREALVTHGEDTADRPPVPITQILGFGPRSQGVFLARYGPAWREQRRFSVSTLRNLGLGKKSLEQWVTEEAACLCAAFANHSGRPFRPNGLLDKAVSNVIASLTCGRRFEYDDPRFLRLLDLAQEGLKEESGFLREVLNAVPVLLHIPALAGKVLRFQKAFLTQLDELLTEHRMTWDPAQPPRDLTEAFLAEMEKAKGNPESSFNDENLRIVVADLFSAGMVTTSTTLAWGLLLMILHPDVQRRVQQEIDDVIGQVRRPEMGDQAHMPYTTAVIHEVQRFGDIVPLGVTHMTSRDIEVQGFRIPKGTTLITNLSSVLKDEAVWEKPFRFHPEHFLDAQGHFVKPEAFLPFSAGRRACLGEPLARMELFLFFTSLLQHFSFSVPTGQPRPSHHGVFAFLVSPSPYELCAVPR

Cytochrome P450 2D6 [14] = target: T6, Cytochrome P450 2D6
Cytochrome P450 2C19 = Cytochrome P450 2C19 (Homo sapiens, UniProt P33261); test: Cytochrome panel assay with activity outcomes. Panel member name: p450-cyp2c19 Compounds with AC50 equal or less than 10 uM are considered active; format: functional; conditions: read-out: AC50
Chain of Cytochrome P450 2C19 (P33261 whole entry): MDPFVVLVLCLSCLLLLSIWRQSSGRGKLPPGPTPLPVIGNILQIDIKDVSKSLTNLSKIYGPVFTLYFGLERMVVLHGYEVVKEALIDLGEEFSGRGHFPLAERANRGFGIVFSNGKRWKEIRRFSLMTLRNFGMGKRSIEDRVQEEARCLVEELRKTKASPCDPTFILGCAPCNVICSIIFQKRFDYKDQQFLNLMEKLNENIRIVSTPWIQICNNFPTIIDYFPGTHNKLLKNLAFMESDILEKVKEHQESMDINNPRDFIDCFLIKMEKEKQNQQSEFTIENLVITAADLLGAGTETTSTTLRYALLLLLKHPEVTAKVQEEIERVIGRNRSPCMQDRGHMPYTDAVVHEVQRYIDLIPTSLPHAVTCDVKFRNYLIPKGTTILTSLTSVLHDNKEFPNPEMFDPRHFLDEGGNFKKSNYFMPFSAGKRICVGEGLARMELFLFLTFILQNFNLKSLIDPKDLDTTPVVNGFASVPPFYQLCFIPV

Chain of Luciferin 4-monooxygenase (P08659 whole entry): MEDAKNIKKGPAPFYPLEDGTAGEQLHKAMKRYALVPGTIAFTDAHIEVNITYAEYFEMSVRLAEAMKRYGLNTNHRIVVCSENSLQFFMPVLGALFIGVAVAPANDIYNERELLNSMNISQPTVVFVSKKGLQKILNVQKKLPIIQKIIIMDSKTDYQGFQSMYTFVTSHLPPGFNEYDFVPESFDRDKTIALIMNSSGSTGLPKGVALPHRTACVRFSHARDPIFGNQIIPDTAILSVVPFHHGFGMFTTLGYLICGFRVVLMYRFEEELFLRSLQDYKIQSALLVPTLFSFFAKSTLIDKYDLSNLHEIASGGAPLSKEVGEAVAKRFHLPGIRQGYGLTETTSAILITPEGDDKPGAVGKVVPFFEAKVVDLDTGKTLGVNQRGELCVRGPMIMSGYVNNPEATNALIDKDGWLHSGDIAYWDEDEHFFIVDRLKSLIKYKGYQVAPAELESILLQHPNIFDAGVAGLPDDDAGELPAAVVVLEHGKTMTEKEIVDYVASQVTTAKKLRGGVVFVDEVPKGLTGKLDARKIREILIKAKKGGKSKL

Q: For `CC(=O)c1sc(NC(=O)C2COc3ccccc3O2)nc1C` (centres undefined), which EC50 [1] is on record?
A: The EC50 was 3.97 µM (active).

Q: What about the EC50 (HT-1080) of the same compound?
A: Its EC50 is > 50 µM (not active).

Q: And the AC50 (HEK293)?
A: The AC50 was 2.85 µM (active).

Q: For `Nc1ccc2c(ccn2C(=O)c2cccs2)c1`, which Kd (Chaperone protein dnaK) is on record?
A: The Kd was 3.4 µM (active).

Q: Which results are given for `COc1cccc(OC)c1-c1nn2c(-c3cc(-c4ccccc4)n[nH]3)nnc2s1`?
A: IC50 (Bcl-2-related protein A1 [2]): > 100 µM (not active); IC50 (Protein Rev): > 79.4 µM (not active); IC50 [3]: > 50 µM (not active); IC50 (Bcl-2-related protein A1 [4]): 14.1 µM (active)

Q: Which AC50 (Cytochrome P450 3A4) does the source give for `COCCN(CCOC)c1nc(C)nc2c1nc(-c1ccccc1)n2CCN(C)C` here?
A: The AC50 was 15.8 µM (inconclusive).

Q: What does the source list for `Cc1cccc(C)c1Oc1nc(-c2ccccc2)ncc1S(=O)(=O)c1ccccc1`?
A: EC50 (Streptococcus [5]): > 150 µM (not active); EC50 [6]: 16.9 µM (active); EC50 [7]: 44.1 µM (active); EC50 (Streptokinase A): 3.99 µM (active); EC50 [8]: 29.8 µM (active); EC50 (Streptococcus [9]): > 500 µM (not active); EC50 [10]: 13.2 µM (active)

Q: Which EC50 (Ion channel NompC) does the source give for `COc1ccc(S(=O)(=O)N2CCC(C)CC2)cc1Br` here?
A: Its EC50 is > 29.9 µM (not active).

Q: What about the EC50 (Mucolipin-3) of the same compound?
A: Its EC50 is 1.82 µM (active).

Q: Which AC50 (Cytochrome P450 2C9 [11]) does the source give for `O=C(CCNNC(=O)c1ccncc1)NCc1ccccc1` [NIALAMIDE] here?
A: The AC50 was 25.1 µM (inconclusive).

Q: What about the AC50 (Cytochrome P450 1A2) of the same compound?
A: Its AC50 is 12.6 µM (inconclusive).

Q: What about the AC50 (Cytochrome P450 2C9 [12]) of the same compound?
A: Its AC50 is 10 µM (inconclusive).

Q: And the AC50 (Cytochrome P450 2D6 [13])?
A: The AC50 was 25.1 µM (inconclusive).

Q: And the AC50 (Cytochrome P450 2D6 [14])?
A: Its AC50 is 7.94 µM (inconclusive).

Q: What about the AC50 (Cytochrome P450 2C19) of the same compound?
A: Its AC50 is 10 µM (inconclusive).
